Reference: publication PMC11040352, “CD38‐Specific Gallium‐68 Labeled Peptide Radiotracer Enables Pharmacodynamic Monitoring in Multiple Myeloma with PET” (Advanced Science, 2024)
Like-named read-outs stand apart in the source and are kept apart here.

Key:
[1] = Ex vivo biodistribution in mice with RPMI tumor xenografts; conditions: both sexes, NSG, mouse, 60 min p.i., RPMI xenograft mice; for tissue uptake at 1 h: 50 µCi; for tissue to tissue ratio at 1 h: 50 uCi, total radioactivity
Experimental: (§1) Animal studies were performed under Johns Hopkins University Animal Care and Use Committee (ACUC‐approved protocol (Principal investigator: Sridhar Nimmagadda, Ph.D. and Protocol number M021M175). Male and female NSG mice (5‐6 weeks old) were used to establish xenografts by administering 3 million cells (50% Corning Matrigel) subcutaneously to form various tumor models within 3–4 weeks. Imaging or biodistribution studies (n = 3–5) were conducted on mice with tumor volumes of 100–200 mm^3. Disseminated tumor models were developed by injecting 4–5 million cells in saline intravenously for MOLP8 and MM1S‐Luc models (n = 4–5). Luciferase expressing MM1S cell line (MM1S‐Luc) was used to monitor cancer cell dissemination in the body. Tumor establishment was confirmed by injecting D‐Luciferin intraperitoneally (150 mg kg^−1) and imaged mice after 10 min in IVIS bioluminescence imaging system. Bone marrow tumors were ready for imaging after 25–30 d of implantation.
(§2) Mice with 100–200 mm^3 tumor volume were used for ex vivo biodistribution studies. For radiotracer pharmacokinetics studies, mice with MOLP8 tumor xenografts received ≈80 µCi (2.96 MBq) [^68Ga]Ga‐AJ206 and were sacrificed at pre‐determined time points (5, 30, 60 and 120 min). Similarly, for dosimetry study, mice with MM1S tumor xenografts received ≈80 µCi (2.96 MBq) of [^68Ga]Ga‐AJ206 and were sacrificed at pre‐determined time points (5, 30, 60, 90 and 120 min). All other mice were injected with ≈50µCi (1.85 MBq) [^68Ga]Ga‐AJ206 and were sacrificed at 60 min. The selected tissues were collected, weighed, counted, and their %ID g^−1 values calculated for biodistribution analysis. The tissues included blood, muscle, tumor, thymus, heart, lung, liver, pancreas, stomach, small intestine, large intestine, spleen, adrenals, kidney, bladder, femur, and brain.

[2] = Ex vivo biodistribution in mice with MOLP8 tumor xenografts; design: species or system NSG mice; conditions: both sexes, NSG, mouse, 80 uCi, total radioactivity, MOLP8 xenograft mice; for tissue to tissue ratio at 5 min: 5 min p.i.; for tissue to tissue ratio at 0.5 h: 30 min p.i.; for tissue to tissue ratio at 1 h: 60 min p.i.; for tissue to tissue ratio at 2 h: 120 min p.i.
Experimental: as §1, §2

MOLP8 tumor xenografts = assay: as above; design: species or system NSG mice; conditions: MOLP8 xenograft mice
Experimental: as §1, §2

[3] = tumor/blood, read-out: Tumor/blood ratio
[4] = tumor/muscle, read-out: Tumor/muscle ratio

With `CC[C@H](C)[C@@H]1NC(=O)[C@@H]2CCCN2C(=O)[C@H](Cc2ccccc2)NC(=O)[C@H](CC(=O)O)NC(=O)[C@H](C)NC(=O)[C@@H]2CSCc3cc(cc(c3)CSC[C@H](NC(=O)[C@H](C)NC(=O)CCOCCOCCOCCNC(=O)CN3CCN(CC(=O)O)CCN(CC(=O)O)CC3)C(=O)N[C@@H](C(C)C)C(=O)N3CCC[C@H]3C(=O)N2)CSC[C@@H](C(N)=O)NC(=O)[C@H](Cc2ccc(O)cc2)NC(=O)[C@H](Cc2c[nH]c3ccccc23)NC1=O` [[^68Ga]Ga‐AJ206, metal not drawn] the tissue uptake at 1 h ([1]; blood, read-out: uptake in blood) was 0.98 ± 0.48 %ID/g, the tissue uptake at 1 h ([1]; heart, read-out: uptake in heart) was 0.63 ± 0.21 %ID/g and the tissue uptake at 1 h ([1]; kidney, read-out: uptake in kidney) was 17.8 ± 3.48 %ID/g. It also gave a tissue uptake at 1 h ([1]; liver, read-out: uptake in liver) of 1.27 ± 0.3 %ID/g, a tissue uptake at 1 h ([1]; lung, read-out: uptake in lung) of 1 ± 0.26 %ID/g and a tissue uptake at 1 h ([1]; muscle, read-out: uptake in muscle) of 0.49 ± 0.07 %ID/g. For the same compound, the tissue uptake at 1 h ([1]; pancreas, read-out: uptake in pancreas) was 0.48 ± 0.15 %ID/g, the tissue uptake at 1 h ([1]; small intestine, read-out: uptake in small intestine) was 0.59 ± 0.25 %ID/g and the tissue uptake at 1 h ([1]; spleen, read-out: uptake in spleen) was 1.09 ± 0.15 %ID/g. The tissue uptake at 1 h ([1]; stomach, read-out: uptake in stomach) was 0.45 ± 0.07 %ID/g, the tissue uptake at 1 h ([1]; tumor, read-out: uptake in tumor) was 1.78 ± 0.36 %ID/g and the tissue to tissue ratio at 1 h ([1]; tumor/blood, read-out: Tumor/Blood ratio) was 2.69 ± 0.65. The tissue to tissue ratio at 1 h ([1]; tumor/muscle, read-out: Tumor/Muscle ratio) was 3.72 ± 0.73, the tissue to tissue ratio at 5 min [2, 3] was 0.32 ± 0.04 and the tissue to tissue ratio at 0.5 h [2, 3] was 1.43 ± 0.46. The tissue to tissue ratio at 1 h [2, 3] was > 7, the tissue to tissue ratio at 2 h [2, 3] was 19.7 ± 6.57 and the tissue to tissue ratio at 5 min [2, 4] was 2.94 ± 0.47. The tissue to tissue ratio at 0.5 h [2, 4] was 7.28 ± 1.89, the tissue to tissue ratio at 1 h [2, 4] was > 25 and the tissue to tissue ratio at 2 h [2, 4] was 27.4 ± 18.6. It also gave an uptake in blood (MOLP8 tumor xenografts; 5 min p.i.) of 8.25 ± 0.50 %ID g^−1, an uptake in femur (MOLP8 tumor xenografts; 5 min p.i.) of 1.42 ± 0.09 %ID g^−1 and an uptake in heart (MOLP8 tumor xenografts; 5 min p.i.) of 3.13 ± 0.27 %ID g^−1. It also gave an uptake in kidney (MOLP8 tumor xenografts; 5 min p.i.) of 11.17 ± 0.65 %ID g^−1, an uptake in liver (MOLP8 tumor xenografts; 5 min p.i.) of 21.24 ± 1.31 %ID g^−1 and an uptake in lungs (MOLP8 tumor xenografts; 5 min p.i.) of 6.16 ± 0.16 %ID g^−1. For the same compound, the uptake in muscle (MOLP8 tumor xenografts; 5 min p.i.) was 0.92 ± 0.11 %ID g^−1, the “uptake in small intestine” value (MOLP8 tumor xenografts; 5 min p.i.) was 1.95 ± 0.08 %ID g^−1 and the uptake in spleen (MOLP8 tumor xenografts; 5 min p.i.) was 2.28 ± 0.50 %ID g^−1. For the same compound, the uptake in stomach (MOLP8 tumor xenografts; 5 min p.i.) was 1.08 ± 0.07 %ID g^−1, the uptake in tumor (MOLP8 tumor xenografts; 5 min p.i.) was 2.58 ± 0.18 %ID g^−1 and the uptake in blood (MOLP8 tumor xenografts; 30 min p.i.) was 2.07 ± 0.30 %ID g^−1. For the same compound, the uptake in femur (MOLP8 tumor xenografts; 30 min p.i.) was 0.65 ± 0.08 %ID g^−1, the uptake in heart (MOLP8 tumor xenografts; 30 min p.i.) was 0.83 ± 0.18 %ID g^−1 and the uptake in kidney (MOLP8 tumor xenografts; 30 min p.i.) was 17.09 ± 1.77 %ID g^−1. For the same compound, the uptake in liver (MOLP8 tumor xenografts; 30 min p.i.) was 6.39 ± 3.71 %ID g^−1, the uptake in lungs (MOLP8 tumor xenografts; 30 min p.i.) was 1.86 ± 0.29 %ID g^−1 and the uptake in muscle (MOLP8 tumor xenografts; 30 min p.i.) was 0.37 ± 0.05 %ID g^−1. The “uptake in small intestine” value (MOLP8 tumor xenografts; 30 min p.i.) was 0.59 ± 0.14 %ID g^−1, the uptake in spleen (MOLP8 tumor xenografts; 30 min p.i.) was 0.75 ± 0.14 %ID g^−1 and the uptake in stomach (MOLP8 tumor xenografts; 30 min p.i.) was 0.51 ± 0.06 %ID g^−1. The uptake in tumor (MOLP8 tumor xenografts; 30 min p.i.) was 2.91 ± 0.84 %ID g^−1, the Tumor/blood ratio (MOLP8 tumor xenografts; 60 min p.i.) was 7.20 ± 0.89 and the Tumor/muscle ratio (MOLP8 tumor xenografts; 60 min p.i.) was 27.12 ± 2.73. For the same compound, the uptake in blood (MOLP8 tumor xenografts; 60 min p.i.) was 0.56 ± 0.09 %ID g^−1.
